Like-named read-outs stand apart in the source and are kept apart here.
Key:
[1] = target: T1, BRAF V600E (Homo sapiens, UniProt P15056+Q96SW2, V600E); assay: BRAF V600E HiBiT Degradation Assay; format: cell-based
T1 construct: knock-in of the HiBiT tag to the endogenous BRAF V600E locus; host or cells: A375.10 (A375 clonal line, CRISPR HiBiT knock-in at the endogenous BRAF V600E locus)
Summary of the method: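 Endogenous HiBiT knock-in on BRAF V600E in A375 cells (clone A375.10); 11-point half-log series, top 10 μM, 2, 6 or 24 h at 37° C. Lytic HiBiT luminescence, background-subtracted, normalized to DMSO; 4-parameter fit gives DC50, Emax (residual protein) and IP (inflection point).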

[2] = system: A375-NRAS^Q61K cells; assay: CTGlo Cell Viability Assay, A375-NRAS^Q61K (A375.11) cells, 96 hours; format: cell-based, human; conditions: A375.11 (A375-NRAS^Q61K) cells; for Emax / CTGlo A375.11 96 hours Emax: lowest % viability achieved
Summary of the method: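 Viability as CellTiter-Glo ATP luminescence after 96 h compound exposure at 37 °C; A375.11 (BRAF V600E/NRAS Q61K) cells at 250/well, top final concentration 10 μM in half-log steps. Signal was background-corrected and set relative to DMSO controls. A 4-parameter logistic fit gave GI50 (50% crossing) and Emax.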

[3] = A375.10 cells, BRAF V600E, 2 hours, inflection point, read-out: HiBiT-Degradation A375.10 BRAF 2 hours IP
[4] = A375.10 cells, BRAF V600E, 2 hours, read-out: HiBiT-Degradation A375.10 BRAF 2 hours DC50
[5] = A375.10 cells, BRAF V600E, 2 hours, residual protein remaining, read-out: HiBiT-Degradation A375.10 BRAF 2 hours Emax
[6] = A375.10 cells, BRAF V600E, 2 hours, residual protein remaining
[7] = A375.10 cells, HiBiT, BRAF V600E, 24 hours, read-out: HiBiT-Degradation A375.10 BRAF 24 hours DC50
[8] = A375.10 cells, HiBiT, BRAF V600E, 24 hours, read-out: HiBiT-Degradation A375.10 BRAF 24 hours Emax
[9] = A375.10 cells, HiBiT, BRAF V600E, 24 hours, read-out: HiBiT-Degradation A375.10 BRAF 24 hours IP

T1 sequence (P15056 whole entry V600E): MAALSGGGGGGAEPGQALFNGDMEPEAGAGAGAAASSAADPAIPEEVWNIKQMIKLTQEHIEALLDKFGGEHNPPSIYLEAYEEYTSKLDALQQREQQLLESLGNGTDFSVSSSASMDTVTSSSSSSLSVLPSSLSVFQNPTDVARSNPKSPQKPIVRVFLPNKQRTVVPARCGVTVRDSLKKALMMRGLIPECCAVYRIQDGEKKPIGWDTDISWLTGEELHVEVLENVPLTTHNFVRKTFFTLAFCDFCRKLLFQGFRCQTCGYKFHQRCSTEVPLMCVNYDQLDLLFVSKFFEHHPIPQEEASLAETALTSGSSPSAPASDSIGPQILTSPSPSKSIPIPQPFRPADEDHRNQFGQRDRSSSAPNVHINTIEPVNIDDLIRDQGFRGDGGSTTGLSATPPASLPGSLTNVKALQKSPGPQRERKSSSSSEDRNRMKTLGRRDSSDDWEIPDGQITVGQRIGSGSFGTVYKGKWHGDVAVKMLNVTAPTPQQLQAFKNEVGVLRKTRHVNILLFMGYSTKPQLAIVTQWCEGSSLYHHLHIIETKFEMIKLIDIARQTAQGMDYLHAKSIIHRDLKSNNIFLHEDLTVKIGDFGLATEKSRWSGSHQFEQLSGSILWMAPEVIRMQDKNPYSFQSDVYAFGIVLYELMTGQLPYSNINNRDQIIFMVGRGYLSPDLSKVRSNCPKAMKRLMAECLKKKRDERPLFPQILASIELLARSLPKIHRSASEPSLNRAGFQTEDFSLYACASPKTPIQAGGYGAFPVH
T1 sequence (Q96SW2 whole entry): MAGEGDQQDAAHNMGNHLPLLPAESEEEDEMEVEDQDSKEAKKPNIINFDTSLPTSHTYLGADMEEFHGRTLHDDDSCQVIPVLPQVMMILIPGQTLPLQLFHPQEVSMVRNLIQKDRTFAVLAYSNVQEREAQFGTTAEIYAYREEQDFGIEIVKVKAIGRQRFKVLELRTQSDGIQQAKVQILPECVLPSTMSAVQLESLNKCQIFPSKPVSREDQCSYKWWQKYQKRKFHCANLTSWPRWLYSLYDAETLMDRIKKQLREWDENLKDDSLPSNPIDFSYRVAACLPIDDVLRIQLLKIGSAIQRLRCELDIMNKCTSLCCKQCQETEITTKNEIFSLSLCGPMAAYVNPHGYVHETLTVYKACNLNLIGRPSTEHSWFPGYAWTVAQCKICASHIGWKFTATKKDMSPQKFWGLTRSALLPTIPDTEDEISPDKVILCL
T1 sequence (Q16531 whole entry partner): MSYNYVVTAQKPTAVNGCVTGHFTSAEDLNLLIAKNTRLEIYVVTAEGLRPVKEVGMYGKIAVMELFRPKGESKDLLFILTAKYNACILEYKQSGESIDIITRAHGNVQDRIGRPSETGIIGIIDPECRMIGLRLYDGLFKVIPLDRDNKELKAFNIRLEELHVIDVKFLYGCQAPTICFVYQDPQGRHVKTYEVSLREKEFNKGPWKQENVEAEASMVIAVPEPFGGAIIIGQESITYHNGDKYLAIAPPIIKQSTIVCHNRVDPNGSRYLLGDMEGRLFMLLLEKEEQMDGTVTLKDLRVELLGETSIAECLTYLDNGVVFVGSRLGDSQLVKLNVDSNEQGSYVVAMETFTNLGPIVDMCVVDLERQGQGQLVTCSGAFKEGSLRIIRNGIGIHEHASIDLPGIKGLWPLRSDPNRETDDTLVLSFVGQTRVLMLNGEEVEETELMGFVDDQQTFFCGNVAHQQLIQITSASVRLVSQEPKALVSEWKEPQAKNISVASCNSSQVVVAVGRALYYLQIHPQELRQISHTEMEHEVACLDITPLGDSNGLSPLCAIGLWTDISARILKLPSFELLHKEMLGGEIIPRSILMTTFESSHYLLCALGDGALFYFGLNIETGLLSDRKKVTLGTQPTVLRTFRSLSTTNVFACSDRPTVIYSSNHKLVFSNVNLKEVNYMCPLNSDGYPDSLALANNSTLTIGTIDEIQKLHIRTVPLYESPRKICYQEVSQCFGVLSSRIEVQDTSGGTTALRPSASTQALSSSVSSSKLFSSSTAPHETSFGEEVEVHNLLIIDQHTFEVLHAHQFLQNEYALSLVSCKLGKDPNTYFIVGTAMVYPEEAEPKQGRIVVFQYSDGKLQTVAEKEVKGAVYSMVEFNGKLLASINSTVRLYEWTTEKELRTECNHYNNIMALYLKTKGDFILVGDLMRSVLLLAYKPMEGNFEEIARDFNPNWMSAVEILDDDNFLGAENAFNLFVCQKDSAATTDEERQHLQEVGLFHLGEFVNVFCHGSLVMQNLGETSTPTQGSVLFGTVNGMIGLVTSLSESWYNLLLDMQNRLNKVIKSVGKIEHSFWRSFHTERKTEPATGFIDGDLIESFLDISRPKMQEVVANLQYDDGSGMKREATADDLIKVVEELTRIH

SMILES | DC50 [1, 3] [nM] | DC50 [1, 4] [nM] | Emax [1, 5] [%] | GI50 [2] [nM] | HiBiT-Degradation A375.10 BRAF 2 hours Emax [1, 6] | GI50 ([2]; Homo sapiens, 96 h) [nM] | DC50 [1, 7] [nM] | Emax [1, 8] [%] | DC50 [1, 9] [nM] | Emax ([1]; read-out: HiBiT-Degradation A375.10 BRAF 2 hours Emax, A375.10 cells, BRAF V600E, 2 hours, residual protein remaining) [%] | HiBiT-Degradation A375.10 BRAF 2 hours Emax [1] | Emax ([2]; Homo sapiens, 96 h) [%] | CTGlo A375.11 96 hours Emax [2]
CCN(C)S(=O)(=O)Nc1ccc(F)c(Oc2ccc3ncn(CC4(F)CCN(C5CCC(c6cc7c(cc6F)c(N6CCC(=O)NC6=O)nn7C)CC5)CC4)c(=O)c3c2)c1C#N (single isomer, unassigned) [Compound 201, 6-[2-cyano-3-[[ethyl(methyl)sulfamoyl]amino]-6-fluoro-phenoxy]-3-[[1-[4-[3-(2,4-dioxohexahydropyrimidin-1-yl)-5-fluoro-1-methyl-indazol-6-yl]cyclohexyl]-4-fluoro-4-piperidyl]methyl]-4-oxo-quinazoline] | < 1000 | < 1000 | < 50 | – | – | 1000 to 10000 | – | – | – | – | – | 50 to 90 | –
CCN(C)S(=O)(=O)Nc1ccc(F)c(Oc2ccc3ncn(C4CC5(C4)CN(C4CCC(c6cc7c(cc6F)c(N6CCC(=O)NC6=O)nn7C)CC4)C5)c(=O)c3c2)c1C#N (single isomer, unassigned) [Compound 203, 6-[2-cyano-3-[[ethyl(methyl)sulfamoyl]amino]-6-fluoro-phenoxy]-3-[2-[4-[3-(2,4-dioxohexahydropyrimidin-1-yl)-5-fluoro-1-methyl-indazol-6-yl]cyclohexyl]-2-azaspiro[3.3]heptan-6-yl]-4-oxo-quinazoline] | < 1000 | < 1000 | – | > 10000 | – | – | < 1000 | < 50 | < 1000 | < 50 | – | 50 to 90 | –
CCN(C)S(=O)(=O)Nc1ccc(F)c(Oc2ccc3ncn(C4CC5(CCN(C6CCC(c7cc8c(cc7F)c(N7CCC(=O)NC7=O)nn8C)CC6)C5)C4)c(=O)c3c2)c1C#N (single isomer, unassigned) [Compound 205, 6-[2-cyano-3-[[ethyl(methyl)sulfamoyl]amino]-6-fluoro-phenoxy]-3-[6-[4-[3-(2,4-dioxohexahydropyrimidin-1-yl)-5-fluoro-1-methyl-indazol-6-yl]cyclohexyl]-6-azaspiro[3.4]octan-2-yl]-4-oxo-quinazoline] | < 1000 | > 10000 | – | > 10000 | ** (<90% and >50%) | – | – | – | – | – | – | 50 to 90 | –
CCN(C)S(=O)(=O)Nc1ccc(F)c(Oc2ccc3ncn(C4CC5(CCN(C6CCC(c7cc8c(cc7F)c(N7CCC(=O)NC7=O)nn8C)CC6)C5)C4)c(=O)c3c2)c1C#N (single isomer, unassigned) [Compound 206, 6-[2-cyano-3-[[ethyl(methyl)sulfamoyl]amino]-6-fluoro-phenoxy]-3-[6-[4-[3-(2,4-dioxohexahydropyrimidin-1-yl)-5-fluoro-1-methyl-indazol-6-yl]cyclohexyl]-6-azaspiro[3.4]octan-2-yl]-4-oxo-quinazoline] | < 1000 | < 1000 | < 50 | < 1000 | – | – | < 1000 | < 50 | < 1000 | – | – | – | ** (<90% and >50%)
CN(CCO)S(=O)(=O)Nc1ccc(F)c(Oc2ccc3ncn([C@H]4COC5(CCC(N6CCC(c7cc8c(cc7F)c(N7CCC(=O)NC7=O)nn8C)C(F)(F)C6)CC5)C4)c(=O)c3c2)c1C#N (single isomer, unassigned) [Compound 212] | < 1000 | < 1000 | < 50 | – | – | < 1000 | – | – | – | – | – | 50 to 90 | –
CN(CCO)S(=O)(=O)Nc1ccc(F)c(Oc2ccc3ncn([C@H]4COC5(CCC(N6CCC(c7cc8c(cc7F)c(N7CCC(=O)NC7=O)nn8C)C(F)(F)C6)CC5)C4)c(=O)c3c2)c1C#N (single isomer, unassigned) [Compound 214] | < 1000 | < 1000 | – | < 1000 | *** (<=50%) | – | – | – | – | – | – | – | *** (<=50%)
CCN(C)S(=O)(=O)Nc1ccc(F)c(Oc2ccc3ncc(OC4CC5(CCN(C6CCC(c7cc8c(cc7F)c(N7CCC(=O)NC7=O)nn8C)CC6)CC5)C4)nc3c2)c1C#N (single isomer, unassigned) [Compound 219, 7-[2-cyano-3-[[ethyl(methyl)sulfamoyl]amino]-6-fluoro-phenoxy]-2-[[7-[4-[3-(2,4-dioxohexahydropyrimidin-1-yl)-5-fluoro-1-methyl-indazol-6-yl]cyclohexyl]-7-azaspiro[3.5]nonan-2-yl]oxy]quinoxaline] | < 1000 | < 1000 | – | > 10000 | – | – | – | – | – | – | ** (<90% and >50%) | – | *** (<=50%)
CCN(C)S(=O)(=O)Nc1ccc(F)c(Oc2ccc3ncn(C4CCC(N5CC6(CCN(c7cc8c(cc7F)c(N7CCC(=O)NC7=O)nn8C)CC6)C5)CC4)c(=O)c3c2)c1C#N (single isomer, unassigned) [Compound 221, 6-[2-cyano-3-[[ethyl(methyl)sulfamoyl]amino]-6-fluoro-phenoxy]-3-[4-[7-[3-(2,4-dioxohexahydropyrimidin-1-yl)-5-fluoro-1-methyl-indazol-6-yl]-2,7-diazaspiro[3.5]nonan-2-yl]cyclohexyl]-4-oxo-quinazoline] | < 1000 | < 1000 | < 50 | – | – | 1000 to 10000 | – | – | – | – | – | 50 to 90 | –
CCN(C)S(=O)(=O)Nc1ccc(F)c(Oc2ccc3ncn(C4CCC(N5CC6(CCN(c7cc8c(cc7F)c(N7CCC(=O)NC7=O)nn8C)CC6)C5)CC4)c(=O)c3c2)c1C#N (single isomer, unassigned) [Compound 222, 6-[2-cyano-3-[[ethyl(methyl)sulfamoyl]amino]-6-fluoro-phenoxy]-3-[4-[7-[3-(2,4-dioxohexahydropyrimidin-1-yl)-5-fluoro-1-methyl-indazol-6-yl]-2,7-diazaspiro[3.5]nonan-2-yl]cyclohexyl]-4-oxo-quinazoline] | < 1000 | < 1000 | – | < 1000 | *** (<=50%) | – | – | – | – | – | – | – | ** (<90% and >50%)

Second part, led by results:

DC50 [1, 3] [nM] | DC50 [1, 4] [nM] | Emax [1, 5] [%] | GI50 [2] [nM] | HiBiT-Degradation A375.10 BRAF 2 hours Emax [1, 6] | GI50 ([2]; Homo sapiens, 96 h) [nM] | DC50 [1, 7] [nM] | Emax [1, 8] [%] | DC50 [1, 9] [nM] | Emax ([1]; read-out: HiBiT-Degradation A375.10 BRAF 2 hours Emax, A375.10 cells, BRAF V600E, 2 hours, residual protein remaining) [%] | HiBiT-Degradation A375.10 BRAF 2 hours Emax [1] | SMILES | Emax ([2]; Homo sapiens, 96 h) [%] | CTGlo A375.11 96 hours Emax [2]
< 1000 | > 10000 | 50 to 90 | > 10000 | – | – | – | – | – | – | – | CCN(C)S(=O)(=O)Nc1ccc(F)c(Oc2ccc3ncc(OCC4(O)CCN(C5CCC(c6cc7c(cc6F)c(N6CCC(=O)NC6=O)nn7C)CC5)CC4)nc3c2)c1C#N (single isomer, unassigned) [Compound 195, 7-[2-cyano-3-[[ethyl(methyl)sulfamoyl]amino]-6-fluoro-phenoxy]-2-[[1-[4-[3-(2,4-dioxohexahydropyrimidin-1-yl)-5-fluoro-1-methyl-indazol-6-yl]cyclohexyl]-4-hydroxy-4-piperidyl]methoxy]quinoxaline] | < 50 | –
< 1000 | < 1000 | – | < 1000 | *** (<=50%) | – | – | – | – | – | – | CCN(C)S(=O)(=O)Nc1ccc(F)c(Oc2ccc3ncc(OCC4(O)CCN(C5CCC(c6cc7c(cc6F)c(N6CCC(=O)NC6=O)nn7C)CC5)CC4)nc3c2)c1C#N (single isomer, unassigned) [Compound 196, 7-[2-cyano-3-[[ethyl(methyl)sulfamoyl]amino]-6-fluoro-phenoxy]-2-[[1-[4-[3-(2,4-dioxohexahydropyrimidin-1-yl)-5-fluoro-1-methyl-indazol-6-yl]cyclohexyl]-4-hydroxy-4-piperidyl]methoxy]quinoxaline] | – | ** (<90% and >50%)
< 1000 | < 1000 | < 50 | – | – | 1000 to 10000 | – | – | – | – | – | CCN(C)S(=O)(=O)Nc1ccc(F)c(C(=O)c2ccc3ncn(C4CC5(CCN(C6CCC(c7ccc(NC8CCC(=O)NC8=O)cc7F)CC6)CC5)C4)c(=O)c3c2)c1F (single isomer, unassigned) [Compound 199, 3-[7-[4-[4-[(2,6-dioxo-3-piperidyl)amino]-2-fluoro-phenyl]cyclohexyl]-7-azaspiro[3.5]nonan-2-yl]-6-[3-[[ethyl(methyl)sulfamoyl]amino]-2,6-difluoro-benzoyl]-4-oxo-quinazoline] | 50 to 90 | –
< 1000 | < 1000 | – | 1000 to 10000 | *** (<=50%) | – | – | – | – | – | – | CCN(C)S(=O)(=O)Nc1ccc(F)c(C(=O)c2ccc3ncn(C4CC5(CCN(C6CCC(c7ccc(NC8CCC(=O)NC8=O)cc7F)CC6)CC5)C4)c(=O)c3c2)c1F (single isomer, unassigned) [Compound 200, 3-[7-[4-[4-[(2,6-dioxo-3-piperidyl)amino]-2-fluoro-phenyl]cyclohexyl]-7-azaspiro[3.5]nonan-2-yl]-6-[3-[[ethyl(methyl)sulfamoyl]amino]-2,6-difluoro-benzoyl]-4-oxo-quinazoline] | – | ** (<90% and >50%)

— patent US20260297060A1, “COMPOUNDS FOR THE DEGRADATION OF MUTANT BRAF” (C4 THERAPEUTICS, INC., priority 2023, published 2026)
